# Test system: not listed separately
# Experiment: Bioavailability in rat
# Type: ADME, organism-based
# Conditions: in vivo
row,bioavailability,SMILES
1,43%,COc1cccc(CNc2ccc(N3CCN(c4cccc(C(F)(F)F)c4)CC3)c(C(F)(F)F)c2)c1Oc1ccc([N+](=O)[O-])cc1C(=O)O
2,23%,CC(C)[C@@H]1CC[C@@H](C)C[C@H]1OCC(=O)Nc1cc(Oc2ccc(C(=O)O)cc2)ccc1[N+](=O)[O-]

# Test system: not listed separately
# Experiment: Volume of distribution of compound in rats after intravenous administration
# Type: ADME, organism-based
# Conditions: rat, in vivo, read-out: Vdss
row,Vd,SMILES
1,1.33 L/kg,COc1cccc(CNc2ccc(N3CCN(c4cccc(C(F)(F)F)c4)CC3)c(C(F)(F)F)c2)c1Oc1ccc([N+](=O)[O-])cc1C(=O)O
2,0.4 L/kg,CC(C)[C@@H]1CC[C@@H](C)C[C@H]1OCC(=O)Nc1cc(Oc2ccc(C(=O)O)cc2)ccc1[N+](=O)[O-]

# Test system: not listed separately
# Experiment: Half-life period of compound in rats after peroral administration
# Type: ADME, organism-based
# Conditions: rat, in vivo, po
row,half-life,SMILES
1,2.8 h,COc1cccc(CNc2ccc(N3CCN(c4cccc(C(F)(F)F)c4)CC3)c(C(F)(F)F)c2)c1Oc1ccc([N+](=O)[O-])cc1C(=O)O
2,3 h,CC(C)[C@@H]1CC[C@@H](C)C[C@H]1OCC(=O)Nc1cc(Oc2ccc(C(=O)O)cc2)ccc1[N+](=O)[O-]

# Test system: not listed separately
# Experiment: […] of compound in rats after peroral administration
# Type: ADME, organism-based
# Conditions: rat, in vivo, po
row,Tmax,SMILES
1,3 h,COc1cccc(CNc2ccc(N3CCN(c4cccc(C(F)(F)F)c4)CC3)c(C(F)(F)F)c2)c1Oc1ccc([N+](=O)[O-])cc1C(=O)O
2,3 h,CC(C)[C@@H]1CC[C@@H](C)C[C@H]1OCC(=O)Nc1cc(Oc2ccc(C(=O)O)cc2)ccc1[N+](=O)[O-]

# Test system: not listed separately
# Experiment: Clearance of compound in rats after intravenous administration
# Type: ADME, organism-based
# Conditions: rat, in vivo
row,clearance,SMILES
1,10.4 mL/min/kg,COc1cccc(CNc2ccc(N3CCN(c4cccc(C(F)(F)F)c4)CC3)c(C(F)(F)F)c2)c1Oc1ccc([N+](=O)[O-])cc1C(=O)O
2,4.84 mL/min/kg,CC(C)[C@@H]1CC[C@@H](C)C[C@H]1OCC(=O)Nc1cc(Oc2ccc(C(=O)O)cc2)ccc1[N+](=O)[O-]

# Test system: not listed separately
# Experiment: Maximal concentration in rats after peroral administration
# Type: ADME, organism-based
# Design: route oral
# Conditions: rat, in vivo, po
row,Cmax,SMILES
1,480 nM,COc1cccc(CNc2ccc(N3CCN(c4cccc(C(F)(F)F)c4)CC3)c(C(F)(F)F)c2)c1Oc1ccc([N+](=O)[O-])cc1C(=O)O
2,160 nM,CC(C)[C@@H]1CC[C@@H](C)C[C@H]1OCC(=O)Nc1cc(Oc2ccc(C(=O)O)cc2)ccc1[N+](=O)[O-]

# Molecular target: Plasminogen activator inhibitor 1 (Homo sapiens, UniProt P05121)
# Sequence (P05121 whole entry): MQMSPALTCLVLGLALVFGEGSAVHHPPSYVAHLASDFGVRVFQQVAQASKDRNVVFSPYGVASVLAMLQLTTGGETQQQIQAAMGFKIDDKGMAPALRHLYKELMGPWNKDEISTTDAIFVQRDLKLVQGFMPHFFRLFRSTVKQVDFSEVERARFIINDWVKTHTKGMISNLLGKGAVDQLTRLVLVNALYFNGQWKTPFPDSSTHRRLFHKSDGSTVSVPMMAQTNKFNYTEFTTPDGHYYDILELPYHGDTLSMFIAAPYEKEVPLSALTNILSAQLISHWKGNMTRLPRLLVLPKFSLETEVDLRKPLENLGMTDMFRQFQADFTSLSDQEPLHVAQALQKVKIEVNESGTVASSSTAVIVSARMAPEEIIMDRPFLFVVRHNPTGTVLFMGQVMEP
# Experiment: Inhibitory concentration against plasminogen activator inhibitor-1 (PAI-1)
# Conditions: not given
row,SMILES,IC50
1,O=C(O)c1ccc(CNc2ccc([N+](=O)[O-])c(N3CCN(c4cccc(C(F)(F)F)c4)CC3)c2)cc1,6.7 µM
2,O=C(O)C1CCN(c2cc(N3CCN(c4ccc(C(F)(F)F)cn4)CC3)c([N+](=O)[O-])cc2C(F)(F)F)CC1,3.2 µM
3,CC(C)[C@@H]1CC[C@@H](C)C[C@H]1OCC(=O)N1CCN(c2cc(N3CCC(C(=O)O)CC3)c(C(F)(F)F)cc2[N+](=O)[O-])CC1,> 15 µM
4,O=C(O)CCNc1cc(N2CCN(c3cccc(C(F)(F)F)c3)CC2)c([N+](=O)[O-])cc1C(F)(F)F,0.9 µM
5,O=C(O)C1CCN(c2cc(N3CCN(C(=O)c4cccc(C(F)(F)F)c4)CC3)c([N+](=O)[O-])cc2C(F)(F)F)CC1,5 µM
6,O=C(O)C1CCN(c2cccc(F)c2CNc2ccc(N3CCN(c4cccc(C(F)(F)F)c4)CC3)c(C(F)(F)F)c2)CC1,1 µM
7,O=C(O)c1ccc(CNc2ccc(N3CCN(c4cccc(C(F)(F)F)c4)CC3)c(C(F)(F)F)c2)cc1,1.7 µM
8,O=C(O)c1ccc(CNc2cc(N3CCN(c4cccc(C(F)(F)F)c4)CC3)c([N+](=O)[O-])cc2[N+](=O)[O-])cc1,1.4 µM
9,O=C(O)C1CCCN1c1c([N+](=O)[O-])ccc(F)c1CNc1ccc(N2CCN(c3cccc(C(F)(F)F)c3)CC2)c(C(F)(F)F)c1 (stereo not given),1.4 µM
10,O=C(O)C1CCCN(c2cc(N3CCN(c4cccc(C(F)(F)F)c4)CC3)c([N+](=O)[O-])cc2C(F)(F)F)C1 (stereo not given),2.8 µM
11,COc1cccc(CNc2ccc(N3CCN(c4cccc(C(F)(F)F)c4)CC3)c(C(F)(F)F)c2)c1Oc1c(C(=O)O)cc(Cl)cc1[N+](=O)[O-],0.9 µM
12,O=C(O)c1ccc(CNc2cc(N3CCN(c4cccc(C(F)(F)F)c4)CC3)c([N+](=O)[O-])cc2C(F)(F)F)cc1,1.5 µM
13,O=C(O)C1CCCN(c2cccc(F)c2CNc2ccc(N3CCN(c4cccc(C(F)(F)F)c4)CC3)c(C(F)(F)F)c2)C1 (stereo not given),1.7 µM
14,COC(=O)c1c(NCc2ccc(C(=O)O)cc2)ccc([N+](=O)[O-])c1N1CCN(c2cccc(C(F)(F)F)c2)CC1,> 15 µM
15,O=C(O)C1CCN(c2c([N+](=O)[O-])ccc(F)c2CNc2ccc(N3CCN(c4cccc(C(F)(F)F)c4)CC3)c(C(F)(F)F)c2)CC1,0.7 µM
16,O=C(O)C1CCN(c2cc(N3CCN(c4cccc(C(F)(F)F)c4)CC3)c([N+](=O)[O-])cc2C(F)(F)F)CC1,0.91 µM
17,O=C(O)c1ccc(CNc2cc(N3CCN(c4cccc(C(F)(F)F)c4)CC3)ccc2[N+](=O)[O-])cc1,2.8 µM

# The next lines start with the values.
row,IC50,SMILES
1,2.1 µM,O=C(O)c1ccc(Oc2cc(N3CCN(c4cccc(C(F)(F)F)c4)CC3)c([N+](=O)[O-])cc2C(F)(F)F)cc1
2,3.7 µM,O=C(O)c1cccc(Oc2cc(N3CCN(c4cccc(C(F)(F)F)c4)CC3)c([N+](=O)[O-])cc2C(F)(F)F)c1
3,1 µM,O=C(O)c1ccccc1Oc1ccc([N+](=O)[O-])cc1CNc1ccc(N2CCN(c3cccc(C(F)(F)F)c3)CC2)c(C(F)(F)F)c1
4,1.1 µM,O=C(O)C1CCN(c2cc(N3CCN(c4ccc(C(F)(F)F)cc4)CC3)c([N+](=O)[O-])cc2C(F)(F)F)CC1
5,4.3 µM,O=C(O)C1CCN(c2cc(N3CCN(Cc4cccc(C(F)(F)F)c4)CC3)c([N+](=O)[O-])cc2C(F)(F)F)CC1
6,3.5 µM,O=C(O)C1CCN(c2cc(N3CCN(C(=O)Nc4cccc(C(F)(F)F)c4)CC3)c([N+](=O)[O-])cc2C(F)(F)F)CC1
7,3.4 µM,O=C(O)c1ccc(CNc2nc(N3CCN(c4cccc(C(F)(F)F)c4)CC3)ccc2[N+](=O)[O-])cc1
8,1.7 µM,O=C(O)C1CCN(c2cccc(C(F)(F)F)c2CNc2ccc(N3CCN(c4cccc(C(F)(F)F)c4)CC3)c(C(F)(F)F)c2)CC1
9,6.1 µM,O=C(O)c1ccc(CNc2ccc([N+](=O)[O-])c(N3CCN(c4cccc(C(F)(F)F)c4)CC3)n2)cc1
10,1.8 µM,O=[N+]([O-])c1cc(C(F)(F)F)c(N2CCN(c3cccc(C(F)(F)F)c3)CC2)cc1NC[P+]([O-])(O)O
11,0.5 µM,COc1cccc(CNc2ccc(N3CCN(c4cccc(C(F)(F)F)c4)CC3)c(C(F)(F)F)c2)c1Oc1ccc([N+](=O)[O-])cc1C(=O)O
12,0.9 µM,COc1cccc(CNc2ccc(N3CCN(c4cccc(C(F)(F)F)c4)CC3)c(C(F)(F)F)c2)c1Oc1ccc(C(=O)O)cn1
13,7.9 µM,O=C(O)C1CCCN1c1cc(N2CCN(c3cccc(C(F)(F)F)c3)CC2)c([N+](=O)[O-])cc1C(F)(F)F (stereo not given)
14,0.8 µM,O=C(O)c1cc(Br)ccc1Oc1cccc(F)c1CNc1ccc(N2CCN(c3cccc(C(F)(F)F)c3)CC2)c(C(F)(F)F)c1
15,> 15 µM,O=C(O)C1CCN(c2cc(N3CCN(c4c([N+](=O)[O-])ccc(C(F)(F)F)c4[N+](=O)[O-])CC3)c([N+](=O)[O-])cc2C(F)(F)F)CC1
16,0.88 µM,O=C(O)C1CCN(c2cc(N3CCN(c4cccc(C(F)(F)F)c4)CC3)c(C(F)(F)F)cc2[N+](=O)[O-])CC1
